# pEC50: −log10 of the molar value. Structures can show the parent of a compound that is named as a salt. Where two headings read alike, the source gives them in different places.
# Biological target: T1, human mAChR M4 (Homo sapiens, UniProt P08173)
# T1 sequence (P08173 1-479): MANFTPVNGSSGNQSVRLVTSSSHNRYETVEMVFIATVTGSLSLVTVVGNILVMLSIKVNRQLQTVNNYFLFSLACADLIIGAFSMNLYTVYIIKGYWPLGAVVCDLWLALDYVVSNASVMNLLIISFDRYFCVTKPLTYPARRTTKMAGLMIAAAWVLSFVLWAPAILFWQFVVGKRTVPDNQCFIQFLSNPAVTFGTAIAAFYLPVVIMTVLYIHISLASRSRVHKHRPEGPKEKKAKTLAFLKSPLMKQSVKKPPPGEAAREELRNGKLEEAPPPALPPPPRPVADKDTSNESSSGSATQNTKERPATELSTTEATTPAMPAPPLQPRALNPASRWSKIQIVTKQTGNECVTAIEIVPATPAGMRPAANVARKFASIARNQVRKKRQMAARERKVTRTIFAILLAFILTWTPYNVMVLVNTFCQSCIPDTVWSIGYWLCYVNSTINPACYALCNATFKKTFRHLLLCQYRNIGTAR
# Assay: mAChR M4 cell-based functional assay (calcium flux), human M4
# Details: for EC50: Human M4 EC50 (nM); for pEC50: Human M4 EC50, CHO-K1 hM4-Gqi5 cells, increase in EC20 acetylcholine response
# [1] = Table 11, calcium flux, PAM activity with EC20 acetylcholine
# [2] = Table 11, % ACh maximum at 30 μM
# [3] = Table 10, calcium flux, PAM activity with EC20 acetylcholine
# [4] = Table 10, % ACh maximum at 30 μM
# [5] = Human M4, % ACh maximum at 30 μM
Compound,EC50 [3] [nM],Emax [4] [%],also measured
"Cc1nnc2sc3c(NCc4ccc(C(=O)NC(C)C)c(Cl)c4)ncnc3c2c1C [Compound 318, 2-chloro-4-[[(3,4-dimethylpyrimido[4′,5′:4,5]thieno[2,3-c]pyridazin-8-yl)amino]methyl]-N-isopropyl-benzamide]",–,–,EC50 [1]: 193 nM; Emax [2]: 81.7%
"Cc1cc(C)c2c(n1)oc1c(NC3CC3c3ccc(F)c(F)c3)ncnc12 (centres unmarked) [Compound 294, N-[2-(3,4-difluorophenyl)cyclopropyl]-7,9-dimethyl-pyrido[3′,2′:4,5]furo [3,2-d]pyrimidin-4-amine hydrochloride]",3380,56.3,–
"Cc1nc2sc3c(NCc4ccc5c(c4)CC(C)(C)O5)ncnc3c2c(C)c1Cl [Compound 270, 8-chloro-N-[(2,2-dimethyl-3H-benzofuran-5-yl)methyl]-7,9-dimethyl-pyrido[3′,2′:4,5]thieno [3,2-d]pyrimidin-4-amine dihydrochloride]",–,22,"EC50 (Table 10, unit μM (bounds)): > 10000 nM"
"Cc1cc(C)c2c(n1)oc1c(NC3CCC3)ncnc12 [Compound 55, N-Cyclobutyl-7,9-dimethyl-pyrido[3′,2′:4,5]furo[3,2-d]pyrimidin-4-amine hydrochloride]",–,–,Emax: 44.2%; pEC50 (calcium flux): 5.80
"Cc1nc2oc3c(NCc4ccc(C(C)(C)O)cc4)ncnc3c2c(C)c1Cl [Compound 251, 2-[4-[[(8-chloro-7,9-dimethyl-pyrido [3′,2′:4,5]furo[3,2-d]pyrimidin-4-yl)amino]methyl]phenyl]propan-2-ol]",1160,61.8,–
"[2H]C([2H])([2H])C(O)(c1ccc(CNc2ncnc3c2sc2nnc(C)c(C)c23)cc1)C([2H])([2H])[2H] [Compound 352, 1,1,1,3,3,3-hexadeuterio-2-[4-[[(3,4-dimethylpyrimido [4′,5′:4,5]thieno[2,3-c]pyridazin-8-yl)amino]methyl]phenyl]propan-2-ol]",–,–,Emax [2]: 103%
"Cc1nnc2sc3c(N4CC(Oc5ccc(F)cc5)C4)ncnc3c2c1C [Compound 30, 8-(3-(4-fluorophenoxy)azetidin-1-yl)-3,4-dimethylpyrimido [4′,5′:4,5]thieno[2,3-c] pyridazine]",–,–,Emax [5]: 65%; pEC50 (calcium flux): 5.58
"Cc1nnc2sc3c(NCc4ccc(C(=O)NC5CC(F)C5)c(Cl)c4)ncnc3c2c1C (centres unmarked) [Compound 321, 2-chloro-4-[[(3,4-dimethylpyrimido [4′,5′:4,5]thieno[2,3-c]pyridazin-8-yl)amino]methyl]-N-(3-fluorocyclobutyl) benzamide]",–,–,EC50 [1]: 102 nM; Emax [2]: 80.6%
"Cc1nnc2sc3c(N4CCC(Oc5ccncc5)(C(F)(F)F)C4)ncnc3c2c1C (centres unmarked) [Compound 366, 3,4-dimethyl-8-[3-(4-pyridyloxy)-3-(trifluoromethyl)pyrrolidin-1-yl]pyrimido[4′,5′:4,5]thieno[2,3-c]pyridazine dihydrochloride]",–,–,EC50 [1]: 1360 nM; Emax [2]: 77.7%
"COc1ccc(CNc2ncnc3c2oc2nnc(C)c(C)c23)cc1F [Compound 75, N-[(3-fluoro-4-methoxy-phenyl)methyl]-3,4-dimethyl-pyrimido[4′,5′:4,5]furo[2,3-c]pyridazin-8-amine]",–,–,Emax [5]: 36.4%
"Cc1nnc2sc3c(NC4CC(O)(c5ccc(F)cc5)C4)ncnc3c2c1C (centres unmarked) [Compound 339, 3-[(3,4-dimethylpyrimido [4′,5′:4,5]thieno[2,3-c]pyridazin-8-yl)amino]-1-(4-fluorophenyl) cyclobutanol]",–,–,EC50 [1]: 4900 nM; Emax [2]: 50.9%
"Cc1nnc2sc3c(N4CC(F)(F)C4)ncnc3c2c1C [Compound 21, 8-(3,3-difluoroazetidin-1-yl)-3,4-dimethylpyrimido [4′,5′:4,5]thieno[2,3-c] pyridazine]",–,–,Emax [5]: 64%; pEC50 (calcium flux): 6.37
"Cc1c(Cl)cnc2sc3c(N4CCCC4)ncnc3c12 [Compound 215, 8-chloro-9-methyl-4-pyrrolidin-1-yl-pyrido [3′,2′:4,5]thieno[3,2-d] pyrimidine]",5980,45,–
"Cc1nnc2oc3c(NCc4ccc(C(C)(O)C(F)(F)F)cc4)ncnc3c2c1C (centres unmarked) [Compound 312, 2-[4-[[(3,4-dimethylpyrimido [4′,5′:4,5]furo[2,3-c]pyridazin-8-yl)amino]methyl]phenyl]-1,1,1-trifluoro-propan-2-ol]",909,70.2,–
"Cc1nnc2sc3c(NCc4ccc(S(F)(F)(F)(F)F)cc4)ncnc3c2c1C [Compound 92, 3,4-dimethyl-N-[[4-(pentafluoro-λ6-sulfanyl)phenyl]methyl]pyrimido [4′,5′:4,5]thieno[2,3-c] pyridazin-8-amine]",5270,67.3,–
"Cc1nc2sc3c(NCc4ccc(-n5ccnc5)cc4)ncnc3c2c(C)c1Cl [Compound 268, 8-chloro-N-[(4-imidazol-1-ylphenyl)methyl]-7,9-dimethyl-pyrido[3′,2′:4,5] thieno[3,2-d]pyrimidin-4-amine dihydrochloride]",3170,31.3,–
"CCn1nccc1-c1ccc(CNc2ncnc3c2sc2nnc(C)c(C)c23)cc1 [Compound 343, N-[[4-(2-ethylpyrazol-3-yl)phenyl]methyl]-3,4-dimethyl-pyrimido [4′,5′:4,5]thieno[2,3-c] pyridazin-8-amine]",–,–,EC50 [1]: 850 nM; Emax [2]: 72.2%
"Cc1cc(C)c2c(n1)oc1c(NC3CCC3)ncnc12 [Compound 293, N-cyclobutyl-7,9-dimethyl-pyrido[3′,2′:4,5]furo[3,2-d]pyrimidin-4-amine hydrochloride]",1590,–,Emax (%) [4]: 44.18%
"Cc1nnc2sc3c(NC4CC5(C4)CN(C(=O)C4CCOCC4)C5)ncnc3c2c1C [Compound 169, [6-[(3,4-dimethylpyrimido[4′,5′:4,5]thieno[2,3-c]pyridazin-8-yl)amino]-2-azaspiro[3.3]heptan-2-yl]-tetrahydropyran-4-yl-methanone]",–,34.9,"EC50 (Table 10, unit μM (bounds)): > 10000 nM"
"COCCN1CCN(c2ccc(CNc3ncnc4c3sc3nnc(C)c(C)c34)cc2)CC1 [Compound 120, N-[[4-[4-(2-methoxyethyl)piperazin-1-yl]phenyl]methyl]-3,4-dimethyl-pyrimido [4′,5′:4,5]thieno[2,3-c] pyridazin-8-amine]",226,100,–
"Cc1nnc2sc3c(NCc4ccc(C(=O)NC5(C)CC5)cc4)ncnc3c2c1C [Compound 149, 4-[[(3,4-dimethylpyrimido [4′,5′:4,5]thieno[2,3-c]pyridazin-8-yl)amino]methyl]-N-(1-methylcyclopropyl) benzamide]",156,78.3,–
"Cc1nnc2sc3c(N4CC[C@H](Oc5ccccn5)C4)ncnc3c2c1C [Compound 359, 3,4-dimethyl-8-[(3S)-3-(2-pyridyloxy)pyrrolidin-1-yl]pyrimido[4′,5′:4,5]thieno[2,3-c]pyridazine dihydrochloride]",–,–,EC50 [1]: 488 nM; Emax [2]: 31.8%

# More lines, main results first:
EC50 [3] [nM],Emax [4] [%],Compound,also measured
3970,29,"Cc1nnc2sc3c(NC4CC5(C4)CN(C(=O)CC(F)(F)F)C5)ncnc3c2c1C [Compound 168, 1-[6-[(3,4-dimethylpyrimido [4′,5′:4,5]thieno[2,3-c]pyridazin-8-yl)amino]-2-azaspiro[3.3]heptan-2-yl]-3,3,3-trifluoro-propan-1-one]",–
1920,72.3,"Cc1nc2sc3c(NC4CN(c5ccnc(C6(O)CCC6)c5)C4)ncnc3c2c(C)c1Cl [Compound 239, 1-[4-[3-[(8-chloro-7,9-dimethyl-pyrido [3′,2′:4,5]thieno[3,2-d]pyrimidin-4-yl)amino]azetidin-1-yl]-2-pyridyl]cyclobutanol]",–
941,98.4,"Cc1nnc2sc3c(NC4CC4c4ccc(F)c(F)c4)ncnc3c2c1C (centres unmarked) [Compound 119, N-[2-(3,4-difluorophenyl)cyclopropyl]-3,4-dimethyl-pyrimido [4′,5′:4,5]thieno[2,3-c] pyridazin-8-amine]",–
462,75.4,"Cc1cc(C)c2c(n1)sc1c(NC3CN(c4ccnc(C5(O)CCC5)c4)C3)ncnc12 [Compound 208, 1-[4-[3-[(7,9-dimethylpyrido [3′,2′:4,5]thieno[3,2-d]pyrimidin-4-yl)amino]azetidin-1-yl]-2-pyridyl]cyclobutanol]",–
–,50.1,"Cc1nnc2sc3c(NC4CN(c5ncc(C6CC6)cc5Cl)C4)ncnc3c2c1C [Compound 82, N-[1-(3-chloro-5-cyclopropyl-2-pyridyl)azetidin-3-yl]-3,4-dimethyl-pyrimido [4′,5′:4,5]thieno[2,3-c] pyridazin-8-amine]","EC50 (Table 10, unit μM (bounds)): > 10000 nM"
420,105,"Cc1c(Cl)nnc2sc3c(NC4CN(c5ncc(C(F)(F)F)cn5)C4)ncnc3c12 [Compound 214, 3-chloro-4-methyl-N-[1-[5-(trifluoromethyl)pyrimidin-2-yl]azetidin-3-yl] pyrimido[4′,5′:4,5] thieno[2,3-c]pyridazin-8-amine]",–
828,97.7,"Cc1nnc2sc3c(NCc4ccc(C(F)(F)F)nc4)ncnc3c2c1C [Compound 146, 3,4-dimethyl-N-[[6-(trifluoromethyl)-3-pyridyl]methyl]pyrimido [4′,5′:4,5]thieno[2,3-c] pyridazin-8-amine hydrochloride]",–
